In patent publication US10392412B2, “Platinum anticancer agents” (THE REGENTS OF THE UNIVERSITY OF CALIFORNIA, priority 2015, dated 2019):
Marks after values point to notes of the source that are not given here.

Experiments:
PE01 cells = assay: Cytotoxicity CellTiter-Glo; type: cell-based, human; conditions: read-out: IC50 (50% growth inhibition); PE01, Ovary; 72 hours
SK-MEL-5 cells = conditions: SK-MEL-5, Melanoma
Source text: (§1) The methods that were used by the DTP were described on the DTP website: (https://dtp.nci.nih.gov/discovery_development/nci-60/methodology.htm).

T-47D cells = conditions: Breast
Source text: as §1

HCT-116 cells = conditions: HCT-116, Colon
Source text: as §1

SF-268 cells = conditions: SF-268, Central Nervous System
Source text: as §1

MDA-MB-435 cells = conditions: MDA-MB-435, Melanoma
Source text: as §1

SR cells = conditions: Leukemia
Source text: as §1

COLO 205 cells = conditions: COLO 205, Colon
Source text: as §1

A549/ATCC cells = conditions: Non-Small Cell Lung
Source text: as §1

NCI-H23 cells = conditions: NCI-H23, Non-Small Cell Lung
Source text: as §1

SK-MEL-28 cells = conditions: SK-MEL-28, Melanoma
Source text: as §1

BT-549 cells = conditions: BT-549, Breast
Source text: as §1

UACC-257 cells = conditions: UACC-257, Melanoma
Source text: as §1

NCI-H226 cells = conditions: NCI-H226, Non-Small Cell Lung
Source text: as §1

UO-31 cells = conditions: UO-31, Renal
Source text: as §1

MOLT-4 cells = conditions: MOLT-4, Leukemia
Source text: as §1

M14 cells = conditions: M14, Melanoma
Source text: as §1

OVCAR-3 cells = conditions: OVCAR-3, Ovarian
Source text: as §1

IGROV1 cells = conditions: IGROV1, Ovarian
Source text: as §1

SK-MEL-2 cells = conditions: SK-MEL-2, Melanoma
Source text: as §1

786-0 cells = conditions: 786-0, Renal
Source text: as §1

OVCAR-4 cells = conditions: OVCAR-4, Ovarian
Source text: as §1

RPMI-8226 cells = conditions: RPMI-8226, Leukemia
Source text: as §1

ACHN cells = conditions: Renal
Source text: as §1

SNB-75 cells = conditions: SNB-75, Central Nervous System
Source text: as §1

RXF 393 cells = conditions: RXF 393, Renal
Source text: as §1

HCC-2998 cells = conditions: HCC-2998, Colon
Source text: as §1

NCI-H522 cells = conditions: NCI-H522, Non-Small Cell Lung
Source text: as §1

HT29 cells = conditions: HT29, Colon
Source text: as §1

[1] = Maximum tolerated dose study: blood chemistry test (Table 7)
Protocol: The mice used in MTD were given standard chow devoid of added folic acid (low folate diet) (See, Leamon C P et al., J. Pharmacol. Exp. Ther. 327: 918-925). […] Therefore we also designed a MTD study in mice treated with low folate diet. Food consumption on the day before injection (Day −1) was recorded and then it was monitored every other day. […] Blood for clinical chemistry was collected if possible. Liver, kidney and bone marrow were collected. One side of each tissue (except bone marrow) will be fixed in 4-10% formalin for future histology analysis, and the rest of tissue will be cut into pieces, snap frozen, and stored at −80° C. until analysis. Blood samples for clinical chemistry were centrifuged at 8000 rpm for 10 min at 4° C. within 1 hour of collection. Plasma was collected into 1.5 mL eppendorf tubes and stored at −80° C. until analysis. The measured parameters were alanine transaminase (ALT), aspartate transaminase (AST), alkaline phosphatase (ALP), total bilirubin, glucose, blood urea nitrogen (BUN), creatinine, and electrolytes. All experiments were housed in a virus-free, temperature controlled facility on a 12-h light-dark cycle.

[2] = Lethality in C57BL/6 mice, i.v. once a week
Source text: The concentration versus time course of total platinum followed a two-compartment model in the mice. […] In the maximum tolerated dose studies, we observed body weight reduction in all mice due to the low folate diet (FIG. 6).

[3] = 7.5 mpk i.v. once a week, listed as AT-69

Work on [Pt(DMSO)methotrexate(Cl)] [SM-69] yielded an IC50 (PE01 cells) of 600 ± 400 nM, a Log10GI50 (SK-MEL-5 cells) of −4.12 M and a Log10GI50 (T-47D cells) of −4.08 M. The Log10GI50 (HCT-116 cells) was −5.50 M, the Log10GI50 (SF-268 cells) was −5.04 M and the Log10GI50 (MDA-MB-435 cells) was −5.36 M. The Log10GI50 (SR cells) was −5.52 M, the Log10GI50 (COLO 205 cells) was −4.34 M and the Log10GI50 (A549/ATCC cells) was −5.30 M. It also gave a Log10GI50 (NCI-H23 cells) of −4.45 M, a Log10GI50 (SK-MEL-28 cells) of −4.00 M and a Log10GI50 (BT-549 cells) of −4.00 M. For the same substance, the Log10GI50 (UACC-257 cells) was −4.01 M, the Log10GI50 (NCI-H226 cells) was −4.61 M and the Log10GI50 (UO-31 cells) was −4.92 M. For the same substance, the Log10GI50 (MOLT-4 cells) was −5.30 M, the Log10GI50 (M14 cells) was −5.41 M and the Log10GI50 (OVCAR-3 cells) was −4.15 M. The Log10GI50 (IGROV1 cells) was −4.11 M, the Log10GI50 (SK-MEL-2 cells) was −4.00 M and the Log10GI50 (786-0 cells) was −5.46 M. For the same substance, the Log10GI50 (OVCAR-4 cells) was −4.00 M, the Log10GI50 (RPMI-8226 cells) was −4.94 M and the Log10GI50 (ACHN cells) was −5.12 M. For the same substance, the Log10GI50 (SNB-75 cells) was −4.39 M, the Log10GI50 (RXF 393 cells) was −4.63 M and the Log10GI50 (HCC-2998 cells) was −4.95 M. It also gave a Log10GI50 (NCI-H522 cells) of −4.74 M, a Log10GI50 (HT29 cells) of −5.25 M and a Glucose ([1]; 2.5 mpk i.v. once a week) of 80.25. For the same substance, the “Na:K” value ([1]; 2.5 mpk i.v. once a week) was 33.50, the “alanine transaminase, ALT (GPT)” value ([1]; 2.5 mpk i.v. once a week) was 52.75 and the “alkaline phosphatase (ALP)” value ([1]; 2.5 mpk i.v. once a week) was 99.00. The “aspartate transaminase, AST (GOT)” value ([1]; 2.5 mpk i.v. once a week) was 252.25, the “blood urea nitrogen (BUN)” value ([1]; 2.5 mpk i.v. once a week) was 41.73 and the “creatinine (CRE)” value ([1]; 2.5 mpk i.v. once a week) was less than 0.2. The “total bilirubin (TBIL)” value ([1]; 2.5 mpk i.v. once a week) was 0.15, the Glucose ([1]; 5 mpk i.v. once a week) was 73.00 and the “Na:K” value ([1]; 5 mpk i.v. once a week) was 33.25. For the same substance, the “alanine transaminase, ALT (GPT)” value ([1]; 5 mpk i.v. once a week) was 83.75, the “alkaline phosphatase (ALP)” value ([1]; 5 mpk i.v. once a week) was 117.25 and the “aspartate transaminase, AST (GOT)” value ([1]; 5 mpk i.v. once a week) was 447.25. The “blood urea nitrogen (BUN)” value ([1]; 5 mpk i.v. once a week) was 65.63, the “creatinine (CRE)” value ([1]; 5 mpk i.v. once a week) was less than 0.2 and the “total bilirubin (TBIL)” value ([1]; 5 mpk i.v. once a week) was 0.53. The Glucose ([1]; 7.5 mpk i.v. once a week) was 40.67*, the “Na:K” value ([1]; 7.5 mpk i.v. once a week) was 31.67 and the “alanine transaminase, ALT (GPT)” value ([1]; 7.5 mpk i.v. once a week) was 258.33*. For the same substance, the “alkaline phosphatase (ALP)” value ([1]; 7.5 mpk i.v. once a week) was 140.33*, the “aspartate transaminase, AST (GOT)” value ([1]; 7.5 mpk i.v. once a week) was 573.67 and the “blood urea nitrogen (BUN)” value ([1]; 7.5 mpk i.v. once a week) was “did not observe a significant difference”. The “creatinine (CRE)” value ([1]; 7.5 mpk i.v. once a week) was “did not observe a significant difference”, the “total bilirubin (TBIL)” value ([1]; 7.5 mpk i.v. once a week) was 0.40 and the “blood urea nitrogen (BUN)” value [1, 3] was 65.40. For the same substance, the “creatinine (CRE)” value [1, 3] was less than 0.2, the lethality ([2]; 5 mg/kg i.v. once a week) was “not” and the lethality ([2]; 10 mg/kg i.v. once a week) was “lethal”.
